Patent US8986662B2, “Use of silane and siloxane bis(biphenyl) triazine derivatives as UV absorbers” (BASF SE, priority 2010, dated 2015)

What was measured:
Assay type in all cases: physicochemical
[1] = Measurement of solubility in Capric/Caprylic Triglyceride; details: solvent Capric/Caprylic Triglyceride
[2] = Measurement of photostability: irradiation of highly diluted ethanol solution, analysis by UV-spectroscopy; details: first order kinetic model; diluted solution in ethanol; half-life under COLIPA standard sun irradiation
Protocol: The method used for assessment of photostability is based on the irradiation of a highly diluted solution of the UV-filter. The analysis after certain doses of irradiation was performed by UV-spectroscopy. The concentration of the UV-absorber in ethanol is adjusted to values between […], such that the absorbance of the solution in cuvette of 1 cm optical pathlength is equal or smaller than 0.2. The mutual protection of filter molecules can be excluded under such conditions.
Prior to irradiation of a sample the UVB-intensity at the sample position is measured with a UV-radiometer (RM-12, Dr. Grobel Electronic GmbH). […] Therefore the relationship of the reading of the RM-12 radiometer and the corresponding spectral output of the lamp is known, and one is able to determine the wavelength-resolved intensities by measuring the UVB-intensity. […]
For sample irradiation the highest possible intensity was used (4.5 mW/cm^2 UVB-intensity measured with the Macam 103 radiometer). […] After certain intervals of irradiation, the samples were analysed in a UV-spectrometer (Perkin Elmer, Lambda 16).
From the absorbance values at each dose of irradiation the concentration may be calculated using Lambert-Beer's law. […]

[3] = UV shielding properties: UV spectra in ethanol
Source text: The UV shielding properties of the bisbiphenyl triazine derivatives were investigated by measuring their UV spectra in ethanol. In the following table the investigated absorption maxima (λmax) together with the corresponding A^1%1cm values are listed.

[4] = UV spectrum in tetrahydrofurane (synthesis examples); details: for ε: at λmax

## CC[Si](CC)(CC)CCCOc1ccc(-c2nc(-c3ccc(-c4ccccc4)cc3)nc(-c3ccc(-c4ccccc4)cc3)n2)c(O)c1 [S-2]
[1]
  Solubility in Capric/Caprylic Triglyceride: 22.8 w-%
[2]
  Half time: 412.1 h
[3]
  Absorption maximum λmax: 319
[4]
  λmax: 319 nm
  ε: 76300 M⁻¹ cm⁻¹

## CCO[Si](CCCOc1ccc(-c2nc(-c3ccc(-c4ccccc4)cc3)nc(-c3ccc(-c4ccccc4)cc3)n2)c(O)c1)(OCC)OCC [S-8]
[2]
  Half time: 342.2 h
[3]
  Absorption maximum λmax: 320
[4]
  λmax: 320 nm
  ε: 75800 M⁻¹ cm⁻¹
